The values that follow come from patent US10703756B2, “Pyrrolo[2,3-D]pyrimidinyl, pyrrolo[2,3-B]pyrazinyl, pyrrolo[2,3-B]pyridinyl acrylamides and epoxides thereof” (Pfizer Inc., priority 2015, dated 2020).

Structures are written as SMILES. Read-outs that look alike come from different tables or passages of the source.

Data set [1] has as its target T1, JAK3 enzyme (Homo sapiens, UniProt P52333).
T1 sequence (P52333 1-1124): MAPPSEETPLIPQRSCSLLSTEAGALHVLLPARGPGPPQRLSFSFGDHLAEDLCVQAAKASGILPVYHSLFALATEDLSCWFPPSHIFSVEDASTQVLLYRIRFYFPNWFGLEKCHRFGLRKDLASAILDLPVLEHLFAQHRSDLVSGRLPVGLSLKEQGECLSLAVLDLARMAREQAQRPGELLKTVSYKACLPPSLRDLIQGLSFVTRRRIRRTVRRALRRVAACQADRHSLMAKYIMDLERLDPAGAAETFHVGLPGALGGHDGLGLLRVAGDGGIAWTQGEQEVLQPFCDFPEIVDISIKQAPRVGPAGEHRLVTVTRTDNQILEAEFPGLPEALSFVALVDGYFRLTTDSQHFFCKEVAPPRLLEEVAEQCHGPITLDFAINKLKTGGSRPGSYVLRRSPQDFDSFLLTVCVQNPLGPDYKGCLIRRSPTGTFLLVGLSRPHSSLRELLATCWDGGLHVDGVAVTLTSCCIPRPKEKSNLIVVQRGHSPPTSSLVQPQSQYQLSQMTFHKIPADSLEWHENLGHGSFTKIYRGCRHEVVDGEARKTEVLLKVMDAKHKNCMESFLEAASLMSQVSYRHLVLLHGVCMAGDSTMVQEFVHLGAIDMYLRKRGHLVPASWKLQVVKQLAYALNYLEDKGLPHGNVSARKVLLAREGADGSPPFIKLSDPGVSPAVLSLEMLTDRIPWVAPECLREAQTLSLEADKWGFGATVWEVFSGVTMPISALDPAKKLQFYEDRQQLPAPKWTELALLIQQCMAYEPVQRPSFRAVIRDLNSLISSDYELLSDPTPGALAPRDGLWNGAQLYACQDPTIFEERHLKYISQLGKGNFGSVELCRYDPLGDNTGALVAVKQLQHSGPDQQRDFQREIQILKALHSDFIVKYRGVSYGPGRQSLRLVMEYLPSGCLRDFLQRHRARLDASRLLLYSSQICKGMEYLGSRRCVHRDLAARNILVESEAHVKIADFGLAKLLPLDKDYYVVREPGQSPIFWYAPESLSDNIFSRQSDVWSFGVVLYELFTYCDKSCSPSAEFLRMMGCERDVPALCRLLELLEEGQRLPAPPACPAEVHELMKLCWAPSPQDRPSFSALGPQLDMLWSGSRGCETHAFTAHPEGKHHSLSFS
Nature of the data set: JAK Caliper Enzyme Assay at 4 μM ATP. The format is biochemical. An outline of the steps:
(§1)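 Kinase activity is measured by separating phosphorylated from unphosphorylated peptide on a microfluidic chip. Per enzyme batch, protein concentration and incubation time are optimized to give 20%-30% substrate turnover.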

Data set [2] can be described thus: Stability of JAK3 Covalent Inhibitors in Human Whole Blood. The format is in vitro ADME. The settings on record: both sexes, 1 μM test compound, 37° C., 180 min incubation, read-out: Human blood stability t1/2. The protocol: Stability of JAK3 Covalent Inhibitors in Rat and Human Whole Blood
Rat blood was collected from 3 male Sprague-Dawley rats (200-250 g, Charles River Laboratories) and pooled for each study. Human blood was collected from healthy subjects at the Occupational Health & Wellness Center at Pfizer, Groton, Conn. and pooled for each study. Both rat and human blood was collected freshly into K2-EDTA tubes and kept on ice. An aliquot of the blood was transferred to microtubes and pre-warmed for 10 min at 37° C. using a heat block. The test compound was then added (1 μM final concentration) and the incubation was continued for 180 min at 37° C. in duplicates. An aliquot of the incubation mixture was removed at designated time points during the course of the incubation, mixed with an aliquot of acetonitrile containing an internal standard, vortexed and centrifuged. The resulting supernatants were removed and subjected to LC-MS/MS analyses to determine parent compound concentrations. Peak area ratios of the parent compound vs the internal standard were used to determine the % of parent compound remaining vs incubation time.

Data set [3] addresses T1, JAK3 enzyme. Nature of the data set: JAK Caliper Enzyme Assay at 1 mM ATP. The format is biochemical. An outline of the steps: as §1
Data set [4] has as its system IL-15 induced P-STAT5 in human PBMC. Nature of the data set: PBMC IL-15 Induced P-STAT5. The format is cell-based. An outline of the steps:
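Flow cytometry gated on total lymphocytes measured STAT5 staining (Alexa Fluor 647 antibody, overnight, 4 °C) in fixed, methanol-permeabilised human PBMC. Cells had received compound for 15 min at 37 °C (0.2% DMSO final), followed by 41 ng/mL final human IL-15 for 15 min.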

Where [5] appears, read: human PBMC, IL-15 final 41 ng/mL, read-out: PBMC IL15_pSTAT5_IC50.

Turning to `C=CC(=O)N1CC[C@H](Nc2cnc3[nH]cc(C(=O)NCCC(F)(F)F)c3n2)C1` [Example 235, 2-{[(3S)-1-acryloylpyrrolidin-3-yl]amino}-N-(3,3,3-trifluoropropyl)-5H-pyrrolo[2,3-b]pyrazine-7-carboxamide], the IC50 against JAK3 enzyme [1] is 0.304 nM; against JAK3 enzyme [3], 37 nM; in data set [4] (setting [5]), 208 nM. Besides, in data set [2], the half-life at 1 μM is 347 min.

In the case of `C=CC(=O)N1CC[C@@H](Nc2cnc3[nH]cc(C(=O)N[C@H](C)COC)c3n2)C[C@H]1C` (single isomer, unassigned) [Example 58], the IC50 was 2.77 nM against JAK3 enzyme [1]; 282 nM at JAK3 enzyme [3]; 4740 nM in data set [4] (Homo sapiens, PBMC, read-out: PBMC IL15_pSTAT5_IC50 (nM)). In addition, the half-life at 1 μM in data set [2] was above 360 min.

Turning to `C=CC(=O)N1C[C@@H](O)C[C@@H](Nc2ncnc3[nH]cc(C#N)c23)C1` [Example 113, 4-{[(3R,5S)-1-Acryloyl-5-hydroxypiperidin-3-yl]amino}-7H-pyrrolo[2,3-d]pyrimidine-5-carbonitrile], the IC50 at JAK3 enzyme [1] came to 2.4 nM; on JAK3 enzyme [3] it was 589 nM; in data set [4] (setting [5]), 1940 nM. In addition, in data set [2], the half-life at 1 μM was above 360 min.

For the molecule `C=CC(=O)N1CC[C@H](Nc2cnc3c(n2)c(C(=O)NCC)cn3C)C[C@@H]1C` (single isomer, unassigned) [Example 350], the figures for the IC50 against JAK3 enzyme [1] and against JAK3 enzyme [3] were 32.1 nM and 4370 nM, respectively. Further, the half-life at 1 μM in data set [2] was above 360 min.

For the molecule `C=CC(=O)N1CCC(Oc2cnc3[nH]cc(-c4ncnn4CC)c3n2)CC1` [Example 121, 1-(4-((7-(1-ethyl-1H-1,2,4-triazol-5-yl)-5H-pyrrolo[2,3-b]pyrazin-2-yl)oxy)piperidin-1-yl)prop-2-en-1-one], the IC50 was 6.96 nM against JAK3 enzyme [1] and 921 nM at JAK3 enzyme [3]. Besides, the half-life at 1 μM in data set [2] amounted to 160 min.

Take `C=CC(=O)N1CCC(Oc2cnc3[nH]cc(-c4nnco4)c3n2)CC1` [Example 128, 1-(4-{[7-(1,3,4-Oxadiazol-2-yl)-5H-pyrrolo[2,3-b]pyrazin-2-yl]oxy}piperidin-1-yl)propan-2-en-1-one]: the IC50 at JAK3 enzyme [1] was found to be 6.67 nM; on JAK3 enzyme [3] it was 787 nM. The half-life at 1 μM in data set [2] was above 360 min.

For `C=CC(=O)N1CC[C@@H](Nc2cnc3c(n2)c(C(=O)NCC)cn3C)C[C@H]1C` (single isomer, unassigned) [Example 351], the IC50 against JAK3 enzyme [1] worked out at 2.88 nM; at JAK3 enzyme [3], 838 nM. Also, the half-life at 1 μM in data set [2] amounted to 331 min.

`C=CC(=O)N(C)C1CN(c2cnc3[nH]cc(C(=O)N[C@@H](C)COC)c3n2)C1` [Example 85, 2-{3-[acryloyl(methyl)amino]azetidin-1-yl}-N-[(2S)-1-methoxypropan-2-yl]-5H-pyrrolo[2,3-b]pyrazine-7-carboxamide]: the figures for the IC50 on JAK3 enzyme [1] and against JAK3 enzyme [3] were 2.91 nM and 467 nM, respectively. Besides, the half-life at 1 μM in data set [2] worked out at 83 min.

For `C=CC(=O)N1C[C@H](Nc2cnc3[nH]cc(C(=O)N[C@@H](C)COC)c3n2)CC[C@@H]1C` (single isomer, unassigned) [Example 66], the IC50 at JAK3 enzyme [1] was determined as 6.21 nM; against JAK3 enzyme [3] it was 412 nM. Moreover, the half-life at 1 μM in data set [2] is above 360 min.

Take `C=CC(=O)N1C[C@H](Oc2cnc3[nH]cc(C(=O)N[C@@H](C)COC)c3n2)CC[C@@H]1C` (single isomer, unassigned) [Example 81]: the half-life at 1 μM in data set [2] was above 360 min. The IC50 on JAK3 enzyme [3] came out at 76.9 nM.

With `C=CC(=O)N1CCC(Oc2cnc3[nH]cc(-c4n[nH]c(C)n4)c3n2)CC1` [Example 115, 1-(4-{[7-(5-Methyl-1H-1,2,4-triazol-3-yl)-5H-pyrrolo[2,3-b]pyrazin-2-yl]oxy}piperidin-1-yl)prop-2-en-1-one], the IC50 at JAK3 enzyme [1] was 8.31 nM; at JAK3 enzyme [3], 929 nM. In addition, in data set [2], the half-life at 1 μM stood at 226 min.

In the case of `C=CC(=O)N1CCC(Oc2cnc3[nH]cc(-c4nnc[nH]4)c3n2)CC1` [Example 120, 1-(4-{[7-(4H-1,2,4-Triazol-3-yl)-5H-pyrrolo[2,3-b]pyrazin-2-yl]oxy}piperidin-1-yl)prop-2-en-1-one], the IC50 against JAK3 enzyme [1] stood at 4.48 nM; against JAK3 enzyme [3], 725 nM. For the same molecule, in data set [2], the half-life at 1 μM is above 360 min.

For `C=CC(=O)N1CCC(Nc2cnc3[nH]cc(C(=O)NCCC)c3n2)CC1` [Example 170, 2-[(1-acryloylpiperidin-4-yl)amino]-N-propyl-5H-pyrrolo[2,3-b]pyrazine-7-carboxamide], the figures for the IC50 on JAK3 enzyme [1] and against JAK3 enzyme [3] were 0.508 nM and 4 nM, respectively. Moreover, the half-life at 1 μM in data set [2] came out at 308 min.

Regarding `C=CC(=O)N1CC[C@H](COc2cnc3[nH]cc(C(=O)N[C@@H](C)COC)c3n2)C1` (single isomer, unassigned) [Example 11], the IC50 on JAK3 enzyme [1] amounted to 1.61 nM; on JAK3 enzyme [3], 308 nM. For the same molecule, in data set [2], the half-life at 1 μM is 208 min.

As to `C=CC(=O)N1C[C@@H](Nc2cnc3[nH]cc(C(=O)N[C@H](C)COC)c3n2)CC[C@H]1C` (single isomer, unassigned) [Example 70], the IC50 against JAK3 enzyme [1] amounted to 9.1 nM; at JAK3 enzyme [3], 1390 nM. The half-life at 1 μM in data set [2] is above 360 min.

With `C=CC(=O)N1CCC[C@@H](Oc2cnc3[nH]cc(C(=O)N[C@@H](C)COC)c3n2)C1` [Example 49, 2-{[(3R)-1-acryloylpiperidin-3-yl]oxy}-N-[(2S)-1-methoxypropan-2-yl]-5H-pyrrolo[2,3-b]pyrazine-7-carboxamide], the IC50 against JAK3 enzyme [1] was 27.1 nM; against JAK3 enzyme [3], 2100 nM. Besides, in data set [2], the half-life at 1 μM was 196 min.

`C=CC(=O)N1CCC(Nc2cnc3[nH]cc(C(=O)NCc4ccc(CC)c(C)n4)c3n2)CC1` [Example 184, 2-[(1-acryloylpiperidin-4-yl)amino]-N-[(5-ethyl-6-methylpyridin-2-yl)methyl]-5H-pyrrolo[2,3-b]pyrazine-7-carboxamide]: the IC50 on JAK3 enzyme [1] came to 1.39 nM; against JAK3 enzyme [3] it was 68 nM; in data set [4] (setting [5]), 1190 nM.

With `C=CC(=O)N1C[C@@H](Nc2ncnc3[nH]ccc23)CC[C@H]1CNC(C)=O` (single isomer, unassigned) [Example 90], the figures for the IC50 (on JAK3 enzyme [1]; against JAK3 enzyme [3]; in data set [4] (setting [5])) were 1.04 nM, 152 nM and 3220 nM, respectively.

In the case of `C=CC(=O)N1CCC(Nc2cnc3[nH]cc(C(=O)NCc4nc5cc(F)ccc5o4)c3n2)CC1` [Example 177, 2-[(1-acryloylpiperidin-4-yl)amino]-N-[(5-fluoro-1,3-benzoxazol-2-yl)methyl]-5H-pyrrolo[2,3-b]pyrazine-7-carboxamide], the figures for the IC50 (at JAK3 enzyme [1]; against JAK3 enzyme [3]; in data set [4] (setting [5])) were 0.626 nM, 25 nM and 420 nM, respectively.

In the case of `C=CC(=O)N1CCC(Nc2cnc3[nH]cc(C(=O)NCCc4nc5ccc(F)c(F)c5o4)c3n2)CC1` [Example 182, 2-[(1-acryloylpiperidin-4-yl)amino]-N-[2-(6,7-difluoro-1,3-benzoxazol-2-yl)ethyl]-5H-pyrrolo[2,3-b]pyrazine-7-carboxamide], the results for the IC50 (on JAK3 enzyme [1]; at JAK3 enzyme [3]; in data set [4] (setting [5])) were 2.44 nM, 165 nM and above 10000 nM, respectively.
